In publication PMC12848717, “Discovery of Encrypted Peptides in a Human Matrix Metallopeptidase” (JACS Au, 2025):
Read-outs that look alike come from different tables or passages of the source. Ends that are not written are not given here.

Legend:
[1] = test system: Human coronavirus 229E (HCoV-229E); details: plaque reduction
[2] = test system: A. baumannii ATCC 19606; details: for MIC after treatment 1: serial exposure at MIC/2, treatment 1 of 21; for MIC after treatment 2: serial exposure at MIC/2, treatment 2 of 21; for MIC after treatment 3: serial exposure at MIC/2, treatment 3 of 21; for MIC after treatment 4: serial exposure at MIC/2, treatment 4 of 21; for MIC after treatment 5: serial exposure at MIC/2, treatment 5 of 21; for MIC after treatment 6: serial exposure at MIC/2, treatment 6 of 21; for MIC after treatment 7: serial exposure at MIC/2, treatment 7 of 21; for MIC after treatment 8: serial exposure at MIC/2, treatment 8 of 21; for MIC after treatment 9: serial exposure at MIC/2, treatment 9 of 21; for MIC after treatment 10: serial exposure at MIC/2, treatment 10 of 21; for MIC after treatment 11: serial exposure at MIC/2, treatment 11 of 21; for MIC after treatment 13: serial exposure at MIC/2, treatment 13 of 21; for MIC after treatment 14: serial exposure at MIC/2, treatment 14 of 21; for MIC after treatment 15: serial exposure at MIC/2, treatment 15 of 21; for MIC after treatment 16: serial exposure at MIC/2, treatment 16 of 21; for MIC after treatment 17: serial exposure at MIC/2, treatment 17 of 21; for MIC after treatment 18: serial exposure at MIC/2, treatment 18 of 21; for MIC after treatment 19: serial exposure at MIC/2, treatment 19 of 21; for MIC after treatment 20: serial exposure at MIC/2, treatment 20 of 21; for MIC after treatment 21: serial exposure at MIC/2, treatment 21 of 21
[3] = test system: S. epidermidis ATCC 35984; details: for MIC after treatment 1: serial exposure at MIC/2, treatment 1 of 21; for MIC after treatment 2: serial exposure at MIC/2, treatment 2 of 21; for MIC after treatment 3: serial exposure at MIC/2, treatment 3 of 21; for MIC after treatment 4: serial exposure at MIC/2, treatment 4 of 21; for MIC after treatment 5: serial exposure at MIC/2, treatment 5 of 21; for MIC after treatment 6: serial exposure at MIC/2, treatment 6 of 21; for MIC after treatment 7: serial exposure at MIC/2, treatment 7 of 21; for MIC after treatment 8: serial exposure at MIC/2, treatment 8 of 21; for MIC after treatment 9: serial exposure at MIC/2, treatment 9 of 21; for MIC after treatment 10: serial exposure at MIC/2, treatment 10 of 21; for MIC after treatment 11: serial exposure at MIC/2, treatment 11 of 21; for MIC after treatment 13: serial exposure at MIC/2, treatment 13 of 21; for MIC after treatment 14: serial exposure at MIC/2, treatment 14 of 21; for MIC after treatment 15: serial exposure at MIC/2, treatment 15 of 21; for MIC after treatment 16: serial exposure at MIC/2, treatment 16 of 21; for MIC after treatment 17: serial exposure at MIC/2, treatment 17 of 21; for MIC after treatment 18: serial exposure at MIC/2, treatment 18 of 21; for MIC after treatment 19: serial exposure at MIC/2, treatment 19 of 21; for MIC after treatment 20: serial exposure at MIC/2, treatment 20 of 21; for MIC after treatment 21: serial exposure at MIC/2, treatment 21 of 21
[4] = read-out: IC50, co-treatment, Vero-76 cells exposed to virus and peptide simultaneously, 1 h, 37 °C
[5] = read-out: IC50, virus pretreatment, virus incubated with peptide 1 h, 37 °C before infection

For “PYLLLGRWRKKHLTFRILNLPSTLPPHTARAALR [r(P)YLL33]”, the IC50 [1, 4] was 27.8 µM, the IC50 [1, 5] was 16.4 µM and the “MIC after treatment 12” value ([2]; ATCC 19606) was 5 µM. For the same substance, the “MIC after treatment 1” value ([2]; Table S3) was 5 µM, the “MIC after treatment 2” value ([2]; Table S3) was 5 µM and the “MIC after treatment 3” value ([2]; Table S3) was 5 µM. For the same substance, the “MIC after treatment 4” value ([2]; Table S3) was 5 µM, the “MIC after treatment 5” value ([2]; Table S3) was 5 µM and the “MIC after treatment 6” value ([2]; Table S3) was 5 µM. The “MIC after treatment 7” value ([2]; Table S3) was 5 µM, the “MIC after treatment 8” value ([2]; Table S3) was 5 µM and the “MIC after treatment 9” value ([2]; Table S3) was 5 µM. The “MIC after treatment 10” value ([2]; Table S3) was 5 µM, the “MIC after treatment 11” value ([2]; Table S3) was 5 µM and the “MIC after treatment 13” value ([2]; Table S3) was 5 µM. For the same substance, the “MIC after treatment 14” value ([2]; Table S3) was 5 µM, the “MIC after treatment 15” value ([2]; Table S3) was 5 µM and the “MIC after treatment 16” value ([2]; Table S3) was 5 µM. The “MIC after treatment 17” value ([2]; Table S3) was 5 µM, the “MIC after treatment 18” value ([2]; Table S3) was 5 µM and the “MIC after treatment 19” value ([2]; Table S3) was 5 µM. For the same substance, the “MIC after treatment 20” value ([2]; Table S3) was 5 µM, the “MIC after treatment 21” value ([2]; Table S3) was 5 µM and the “MIC after treatment 12” value ([3]; ATCC 35984) was 5 µM. For the same substance, the “MIC after treatment 1” value ([3]; Table S4) was 5 µM, the “MIC after treatment 2” value ([3]; Table S4) was 5 µM and the “MIC after treatment 3” value ([3]; Table S4) was 5 µM. The “MIC after treatment 4” value ([3]; Table S4) was 5 µM, the “MIC after treatment 5” value ([3]; Table S4) was 5 µM and the “MIC after treatment 6” value ([3]; Table S4) was 5 µM. The “MIC after treatment 7” value ([3]; Table S4) was 5 µM, the “MIC after treatment 8” value ([3]; Table S4) was 5 µM and the “MIC after treatment 9” value ([3]; Table S4) was 5 µM. For the same substance, the “MIC after treatment 10” value ([3]; Table S4) was 5 µM, the “MIC after treatment 11” value ([3]; Table S4) was 5 µM and the “MIC after treatment 13” value ([3]; Table S4) was 5 µM. For the same substance, the “MIC after treatment 14” value ([3]; Table S4) was 5 µM, the “MIC after treatment 15” value ([3]; Table S4) was 5 µM and the “MIC after treatment 16” value ([3]; Table S4) was 5 µM. The “MIC after treatment 17” value ([3]; Table S4) was 5 µM, the “MIC after treatment 18” value ([3]; Table S4) was 5 µM and the “MIC after treatment 19” value ([3]; Table S4) was 5 µM. The “MIC after treatment 20” value ([3]; Table S4) was 5 µM and the “MIC after treatment 21” value ([3]; Table S4) was 5 µM.

PYLLLGRWRKKHLTFRILNL [r(P)YLL19] was tested, and the IC50 [1, 4] was 12.5 µM, the IC50 [1, 5] was 0.56 µM and the “MIC after treatment 12” value ([2]; ATCC 19606) was 5 µM. For the same substance, the “MIC after treatment 1” value ([2]; Table S3) was 5 µM, the “MIC after treatment 2” value ([2]; Table S3) was 5 µM and the “MIC after treatment 3” value ([2]; Table S3) was 5 µM. For the same substance, the “MIC after treatment 4” value ([2]; Table S3) was 5 µM, the “MIC after treatment 5” value ([2]; Table S3) was 5 µM and the “MIC after treatment 6” value ([2]; Table S3) was 5 µM. For the same substance, the “MIC after treatment 7” value ([2]; Table S3) was 5 µM, the “MIC after treatment 8” value ([2]; Table S3) was 5 µM and the “MIC after treatment 9” value ([2]; Table S3) was 5 µM. For the same substance, the “MIC after treatment 10” value ([2]; Table S3) was 5 µM, the “MIC after treatment 11” value ([2]; Table S3) was 5 µM and the “MIC after treatment 13” value ([2]; Table S3) was 5 µM. The “MIC after treatment 14” value ([2]; Table S3) was 5 µM, the “MIC after treatment 15” value ([2]; Table S3) was 5 µM and the “MIC after treatment 16” value ([2]; Table S3) was 5 µM. The “MIC after treatment 17” value ([2]; Table S3) was 5 µM, the “MIC after treatment 18” value ([2]; Table S3) was 5 µM and the “MIC after treatment 19” value ([2]; Table S3) was 5 µM. The “MIC after treatment 20” value ([2]; Table S3) was 5 µM, the “MIC after treatment 21” value ([2]; Table S3) was 5 µM and the “MIC after treatment 12” value ([3]; ATCC 35984) was 5 µM. For the same substance, the “MIC after treatment 1” value ([3]; Table S4) was 5 µM, the “MIC after treatment 2” value ([3]; Table S4) was 5 µM and the “MIC after treatment 3” value ([3]; Table S4) was 5 µM. For the same substance, the “MIC after treatment 4” value ([3]; Table S4) was 5 µM, the “MIC after treatment 5” value ([3]; Table S4) was 5 µM and the “MIC after treatment 6” value ([3]; Table S4) was 5 µM. The “MIC after treatment 7” value ([3]; Table S4) was 5 µM, the “MIC after treatment 8” value ([3]; Table S4) was 5 µM and the “MIC after treatment 9” value ([3]; Table S4) was 5 µM. For the same substance, the “MIC after treatment 10” value ([3]; Table S4) was 5 µM, the “MIC after treatment 11” value ([3]; Table S4) was 5 µM and the “MIC after treatment 13” value ([3]; Table S4) was 5 µM. The “MIC after treatment 14” value ([3]; Table S4) was 5 µM, the “MIC after treatment 15” value ([3]; Table S4) was 5 µM and the “MIC after treatment 16” value ([3]; Table S4) was 5 µM. For the same substance, the “MIC after treatment 17” value ([3]; Table S4) was 5 µM, the “MIC after treatment 18” value ([3]; Table S4) was 5 µM and the “MIC after treatment 19” value ([3]; Table S4) was 5 µM. For the same substance, the “MIC after treatment 20” value ([3]; Table S4) was 5 µM and the “MIC after treatment 21” value ([3]; Table S4) was 5 µM.

For Polymyxin B [reference compound], the “MIC after treatment 1” value ([2]; Table S3) was 2 µM, the “MIC after treatment 2” value ([2]; Table S3) was 2 µM and the “MIC after treatment 3” value ([2]; Table S3) was 2 µM. For the same substance, the “MIC after treatment 4” value ([2]; Table S3) was 2 µM, the “MIC after treatment 5” value ([2]; Table S3) was 2 µM and the “MIC after treatment 6” value ([2]; Table S3) was 2 µM. For the same substance, the “MIC after treatment 7” value ([2]; Table S3) was 2 µM, the “MIC after treatment 8” value ([2]; Table S3) was 2 µM and the “MIC after treatment 9” value ([2]; Table S3) was 2 µM. For the same substance, the “MIC after treatment 10” value ([2]; Table S3) was 2 µM, the “MIC after treatment 11” value ([2]; Table S3) was 2 µM and the “MIC after treatment 12” value ([2]; Table S3, serial exposure at MIC/2, treatment 12 of 21) was 2 µM. For the same substance, the “MIC after treatment 13” value ([2]; Table S3) was 2 µM, the “MIC after treatment 14” value ([2]; Table S3) was 2 µM and the “MIC after treatment 15” value ([2]; Table S3) was 2 µM. For the same substance, the “MIC after treatment 16” value ([2]; Table S3) was 2 µM, the “MIC after treatment 17” value ([2]; Table S3) was 2 µM and the “MIC after treatment 18” value ([2]; Table S3) was 2 µM. For the same substance, the “MIC after treatment 19” value ([2]; Table S3) was 2 µM, the “MIC after treatment 20” value ([2]; Table S3) was 2 µM and the “MIC after treatment 21” value ([2]; Table S3) was 2 µM. The “MIC after treatment 1” value ([3]; Table S4) was 4 µM, the “MIC after treatment 2” value ([3]; Table S4) was 4 µM and the “MIC after treatment 3” value ([3]; Table S4) was 4 µM. For the same substance, the “MIC after treatment 4” value ([3]; Table S4) was 4 µM, the “MIC after treatment 5” value ([3]; Table S4) was 4 µM and the “MIC after treatment 6” value ([3]; Table S4) was 4 µM. The “MIC after treatment 7” value ([3]; Table S4) was 4 µM, the “MIC after treatment 8” value ([3]; Table S4) was 4 µM and the “MIC after treatment 9” value ([3]; Table S4) was 4 µM. For the same substance, the “MIC after treatment 10” value ([3]; Table S4) was 4 µM, the “MIC after treatment 11” value ([3]; Table S4) was 4 µM and the “MIC after treatment 12” value ([3]; Table S4, serial exposure at MIC/2, treatment 12 of 21) was 4 µM. The “MIC after treatment 13” value ([3]; Table S4) was 4 µM, the “MIC after treatment 14” value ([3]; Table S4) was 4 µM and the “MIC after treatment 15” value ([3]; Table S4) was 4 µM. The “MIC after treatment 16” value ([3]; Table S4) was 4 µM, the “MIC after treatment 17” value ([3]; Table S4) was 4 µM and the “MIC after treatment 18” value ([3]; Table S4) was 4 µM. For the same substance, the “MIC after treatment 19” value ([3]; Table S4) was 4 µM, the “MIC after treatment 20” value ([3]; Table S4) was 4 µM and the “MIC after treatment 21” value ([3]; Table S4) was 4 µM.
